Patent US20230055500A1, “COMPOSITION FOR PREVENTING OR TREATING ISCHEMIA REPERFUSION INJURY COMPRISING NADPH OXIDASE 1 INHIBITOR AS ACTIVE INGREDIENT” (KYUNGPOOK NATIONAL UNIVERSITY INDUSTRY-ACADEMIC COOPERATION …, priority 2020, published 2023)
“Also recorded” adds a separate entry of the source.

Columns and labels:
MDCK cells [1] = test: NOX-related gene and oxidative stress marker expression in H2O2-treated MDCK cells; assay type: cell-based; details: H2O2 1.4 mM 1 h, ML171 1 and 2.5 μM
Protocol: (§1) C57BL/6 mice were intraperitoneally injected with 60 mg/kg of ML171, a selective NOX inhibitor or excipient at a time, renal ischemia-reperfusion injury (IRI) was induced by clamping bilateral renal vessels for 30 min. MDCK cells were incubated with H2O2 (1.4 mM) for 1 h to induce oxidative stress and treated with ML171 (1 and 2.5 μM). Renal damage was estimated using renal function tests and histology. NOX expression, oxidative stress markers, apoptosis assays and MAPK pathways were also evaluated in renal tissue and MDCK cells.

MDCK cells [2] = test: Apoptosis assays in H2O2-treated MDCK cells (Caspase-3 activity, BCL-2/BAX, TUNEL); assay type: cell-based; details: H2O2 1.4 mM 1 h, ML171 1 and 2.5 μM
Protocol: as §1

apoptosis = test: Apoptosis assays in the kidney (Caspase-3 activity, TUNEL, BCL-2/BAX; IRI model); assay type: in vivo; details: C57BL/6 mice, renal IRI, 60 mg/kg intraperitoneal
Protocol: as §1

MDCK cells [3] = test: ROS production in H2O2-treated MDCK cells; assay type: cell-based; details: H2O2 1.4 mM 1 h, ML171 1 and 2.5 μM, FIG. 6f
Protocol: as §1

[4] = system: reactive oxygen species (ROS); test: Reactive oxygen species measurement in the kidney (IRI model); assay type: in vivo; details: C57BL/6 mice, renal IRI, 60 mg/kg intraperitoneal; FIG. 2d, 2e
Protocol: as §1

NOX = NOX mRNA expression in mouse kidney (IRI model); assay type: in vivo; details: C57BL/6 mice, renal IRI, 60 mg/kg intraperitoneal; FIG. 2a, 2b
Protocol: as §1

ERK [5] = test: MAPK pathway (ERK phosphorylation) in H2O2-treated MDCK cells; assay type: cell-based; details: H2O2 1.4 mM 1 h, ML171 1 and 2.5 μM, FIG. 8a, 8b
Protocol: as §1

ERK [6] = test: MAPK pathway western blot in kidney tissue (IRI model); assay type: in vivo; details: C57BL/6 mice, renal IRI, 60 mg/kg intraperitoneal, FIG. 5a, 5b
Protocol: as §1

[7] = system: renal ischemia-reperfusion injury (IRI); test: Renal ischemia-reperfusion injury mouse model: renal function tests and histology; assay type: in vivo, C57BL/6 mice; details: for tissue damage due to ischemia-reperfusion (IRI-mediated damage): mouse model of renal ischemia reperfusion, overall statement
Protocol: as §1

How did the “changes in oxidative stress-related enzymes, SOD and GXP production” value (MDCK cells [1]) turn out when `CC(=O)c1ccc2c(c1)Nc1ccccc1S2` [ML171] was run?
Its value is “alleviated by ML171 treatment”.

What about the “expression of NOX-related genes / oxidative stress markers (NOX1, NOX2, p40)” value (MDCK cells [1]; FIG. 6a-6e) of the same molecule?
Its value is “effectively decreased; also recorded: reduced the expression of NOX1, NOX2 and p40”.

And the Caspase-3 activity (MDCK cells [2]; FIG. 7a)?
Its Caspase-3 activity is “a decrease in Caspase-3 activity”.

And the “protein expression levels of apoptosis markers BCL-2 and BAX” value (MDCK cells [2]; FIG. 7b)?
The value was “apoptosis was significantly inhibited; also recorded: significant increase in Bcl-2 levels”.

And the “apoptosis pattern, intracellular TUNEL assay staining” value (MDCK cells [2]; FIG. 7c)?
The value was “effectively blocked it”.

And the “Caspase-3 activity in the kidney” value (apoptosis; FIG. 3a, 60 mg/kg)?
The value was “significant apoptosis alleviation effect; also recorded: reversed a decrease in Bcl-2 and an increase in Caspase-3 activity”.

And the “apoptosis, TUNEL assay histological staining of kidney” value (apoptosis; FIG. 3b)?
The value was “alleviated apoptosis”.

And the “protein expression levels of apoptosis markers BCL-2 and BAX in the kidneys” value (apoptosis; FIG. 3c, 60 mg/kg)?
Its value is “effectively inhibited apoptosis; also recorded: reversed a decrease in Bcl-2”.

What about the “ROS production in cells” value (MDCK cells [3]) of the same molecule?
The value was “significantly reduced ROS”.

And the “reactive oxygen species (ROS) in the kidney” value [4]?
Its value is “effectively blocked ROS”.

And the “NOX mRNA expression level in mouse kidney” value (NOX)?
The value was “significantly reduced”.

What about the “ERK phosphorylation in MDCK cells” value (ERK [5]) of the same molecule?
Its value is “significantly reduced and regulated this; also recorded: affect ERK signaling”.

And the “phosphorylation of ERK in kidney tissue (western blot)” value (ERK [6])?
Its value is “effectively reduced it; also recorded: affect ERK signaling”.

What about the “level of kidney damage in the blood (renal function test)” value ([7]; C57BL/6 mice, renal IRI (bilateral clamping 30 min), 60 mg/kg intraperitoneal, FIG. 1a, 1b) of the same molecule?
The value was “a significant decrease”.

And the “damage to renal tubular epithelial cells, PAS staining” value ([7]; C57BL/6 mice, renal IRI, 60 mg/kg intraperitoneal, FIG. 1c)?
Its value is “reduced damage to renal tubular epithelial cells”.

And the “renal fibrosis, Trichrome stain” value ([7]; C57BL/6 mice, renal IRI, 60 mg/kg intraperitoneal, FIG. 4a, 4b)?
Its value is “fibrosis was significantly reduced”.

What about the “tissue damage due to ischemia-reperfusion (IRI-mediated damage)” value [7] of the same molecule?
The value was “significantly attenuated IRI-mediated damage”.

What about the “tissue damage due to ischemia-reperfusion (IRI-mediated damage)” value ([7]; listed as compound of Formula 1) of the same molecule?
Its value is “exhibits an effect of alleviating tissue damage due to ischemia-reperfusion”.
